Test results taken from patent US8877967B2, “Compositions and methods for inhibition of cathepsins” (OXiGENE, Inc., priority 2012, dated 2014).

What was measured:
Type in all cases: biochemical
[1] = target: Human liver Cathepsin B (Homo sapiens (Human), UniProt P07858); assay: Cathepsin B inhibition, fluorometric Z-R-R-AMC assay; details: 1.1 nM cathepsin B, 60 μM Z-R-R-AMC, pH 6.0, 5 min preincubation, 37° C.
Method: Human liver Cathepsin B (Calbiochem) was pre-incubated with test compound at various concentrations for 5 minutes at 37° C. The assay was initiated by addition of substrate Z-Arg-Arg-aminomethylcoumarin (“Z-R-R-AMC” Bacchem) and the final assay conditions were 1.1 nM cathepsin B, 60 μM Z-R-R-AMC, 126 mM sodium potassium phosphate pH 6.0 (Fisher), 0.3 mM EDTA (Omnipure), 2.7 mM DTT (Omnipure), 0.004% BRIJ 35 (Sigma), and 2.0% DMSO (Acros) in a final volume of 200 μL. Test compounds were serially diluted with DMSO and 0.01% BRIJ 35 to include a final concentration range of 20 μM to 10 pM. The reaction was monitored fluorometrically for 5 minutes at 37° C. using black 96-well Corning 3686 assay microplates with a Thermo Fluoroskan Ascent FL microplate reader at excitation and emission filter wavelengths of 355 nm and 460 nm, respectively. Data were analyzed to determine IC50 values utilizing GraphPad Prism 4.03 software with a minimum of a triplicate on the same microplate.

[2] = target: Human liver Cathepsin L (Homo sapiens (Human), UniProt P07711); assay: Cathepsin L inhibition, fluorometric Z-F-R-AMC assay; details: 1 nM cathepsin L, 50 μM Z-F-R-AMC, pH 5.5, 5 min preincubation, 25° C.
Chain of Human liver Cathepsin L (P07711 114-333): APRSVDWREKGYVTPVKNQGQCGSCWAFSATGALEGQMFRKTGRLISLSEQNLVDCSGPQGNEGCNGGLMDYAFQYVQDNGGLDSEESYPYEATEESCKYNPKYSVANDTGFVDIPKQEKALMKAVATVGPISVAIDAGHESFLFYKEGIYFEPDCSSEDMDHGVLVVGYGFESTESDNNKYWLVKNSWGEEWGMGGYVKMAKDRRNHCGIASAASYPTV
Method: Human liver Cathepsin L (Sigma) was preincubated with test compounds at various concentrations for 5 minutes at 25° C. The assay was initiated by addition of substrate Z-Phe-Arg-aminomethylcoumarin (“Z-F-R-AMC” Bacchem) and the final assay conditions were 1 nM cathepsin L, 50 μM Z-F-R-AMC, 100 mM sodium acetate pH 5.5, 1 mM EDTA (Omnipure), 3 mM DTT (EMD), 0.01% BRIJ 35 (Sigma), and 2.0% DMSO (Acros). Test compounds were serially diluted with DMSO and water to include a final concentration range of 10 μM to 10 pM. The reaction was monitored fluorometrically for 5 minutes at 25° C. using black 96-well Corning 3686 assay microplates with a Thermo Fluoroskan Ascent FL microplate reader at excitation and emission filter wavelengths of 355 nm and 460 nm, respectively. Data were analyzed to determine IC50 values utilizing GraphPad Prism 4.03 software with a minimum of a triplicate on the same microplate.

[3] = target: Cathepsin K (activated recombinant human procathepsin K) (Homo sapiens (Human), UniProt P43235); assay: Cathepsin K inhibition, fluorometric Z-F-R-AMC assay; details: 1.5 nM cathepsin K, 50 μM Z-F-R-AMC, pH 5.5, 5 min preincubation, 25° C.
Chain of Cathepsin K (activated recombinant human procathepsin K) (P43235 115-329): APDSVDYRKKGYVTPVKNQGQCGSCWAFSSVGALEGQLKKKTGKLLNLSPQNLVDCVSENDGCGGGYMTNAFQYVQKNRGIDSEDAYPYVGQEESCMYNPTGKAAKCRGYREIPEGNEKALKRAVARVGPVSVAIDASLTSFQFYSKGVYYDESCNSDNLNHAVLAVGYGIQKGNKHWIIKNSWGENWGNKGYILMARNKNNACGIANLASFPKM
Method: Recombinant human procathepsin K was obtained from Enzo Life Sciences. Activation of the proenzyme was performed in 32.5 mM sodium acetate pH 3.5, EDTA 1 mM, NaCl 500 mM, human procathepsin K 5.5 μM, at room temperature. Activation times were optimized and varied between 35 and 150 minutes. Cathepsin K was preincubated with test compounds at various concentrations for 5 minutes at 25° C. The assay was initiated by addition of substrate Z-Phe-Arg-aminomethylcoumarin (“Z-F-R-AMC” Bacchem) and the final assay conditions were 1.5 nM cathepsin K, 50 μM Z-F-R-AMC, 150 mM sodium acetate pH 5.5, 2.5 mM EDTA (Omnipure), 2.5 mM DTT (EMD), 0.01% BRIJ 35 (Sigma), and 4.0% DMSO (Acros). Test compounds were serially diluted with DMSO and water to include a final concentration range of 10 μM to 10 pM. The reaction was monitored fluorometrically for 5 minutes at 25° C. using black 96-well Corning 3686 assay microplates with a Thermo Fluoroskan Ascent FL microplate reader at excitation and emission filter wavelengths of 355 nm and 460 nm, respectively. Data were analyzed to determine IC50 values utilizing GraphPad Prism 4.03 software with a minimum of a triplicate on the same microplate.

SMILES	IC50 [1] [nM]	IC50 [2] [nM]	IC50 [3] [nM]
Cc1cccc(C(=O)c2cccc(C(=NNC(N)=S)c3cccc(C)c3)c2)c1 [Compound 9, 1-(3-methylbenzoyl),3-(3-methylbenzoyl)benzene thiosemicarbazone]	–	7820	1030
NC(=S)NN=C(c1ccc(F)cc1)c1cccc(C(=O)c2ccc(F)cc2)c1 [Compound 13, 1,3-bis-(4-fluorobenzoyl)benzene thiosemicarbazone]	> 10000	24.3	8500
CC(C)Oc1ccc(C(=O)c2cccc(C(=NNC(N)=S)c3ccc(OC(C)C)cc3)c2)cc1 [Compound 22, 1,3-bis-(4-isopropoxybenzoyl)benzene thiosemicarbazone]	> 10000	> 10000	–
CC(C)Oc1ccc(C(=NNC(N)=S)c2cccc(C(=NNC(N)=S)c3ccc(OC(C)C)cc3)c2)cc1 [Compound 23, 1,3-bis-(4-isopropoxybenzoyl)benzene dithiosemicarbazone]	–	> 10000	> 10000
NC(=S)NN=C(c1ccc(Br)cc1)c1cccc(C(=O)c2ccc(Br)cc2)c1 [Compound 24, 1,3-bis-(4-bromobenzoyl)benzene thiosemicarbazone]	> 10000	> 10000	> 10000
NC(=S)NN=C(c1ccccc1)c1cc(C(=O)c2ccccc2)cc(C(=O)c2ccccc2)c1 [Compound 25, 1,3,5-Tribenzoyl benzene thiosemicarbazone]	–	25	2800
COc1ccc(C(=NNC(N)=S)c2cccc(C(=NNC(N)=S)c3ccc(OC)cc3)c2)cc1 [Compound 33, 1,3-bis-(4-methoxybenzoyl)benzene dithiosemicarbazone]	> 10000	587	2100

Continued, values first:

IC50 [1] [nM]	IC50 [2] [nM]	IC50 [3] [nM]	SMILES
> 10000	10.5	17.4	NC(=S)NN=C(c1ccccc1)c1cccc(C(=O)c2ccccc2)c1 [Compound 3, 3-benzoyl benzophenone thiosemicarbazone]
> 10000	23.8	–	NC(=S)NN=C(c1ccccc1)c1cccc(C(O)c2ccccc2)c1 (stereo not drawn) [Compound 6, 3-Benzoyl benzhydrol thiosemicarbazone]
> 10000	8.12	–	NC(=S)NN=C(c1cc(Br)cc(C(=O)c2ccccc2F)c1)c1ccccc1F [Compound 11, 1,3-bis(2-fluoro-benzoyl)-5-bromobenzene thiosemicarbazone]
